Data published in PMC7217877, “N-AS-triggered SPMs are direct regulators of microglia in a model of Alzheimer’s disease” (Nature Communications, 2020).
Values joined by “and” are separate entries in the source; they are usually repeats but may differ in a detail not shown here. Identical values can stand only once.

How the values were obtained:
[1] = system: immortalized human microglia; assay: N-AS generation in human microglia (LC-MS/MS, Supplementary Fig 6a); type: cell-based
Method: Reactions were quenched by adding equal volume of cold methanol. A 100 μl aliquot of the reaction mixture was mixed with 30 μl of distilled water containing 5 ng ml^−1 of furosemide (internal standard) for 1 min and vigorously mixed with […] of ethyl acetate for 20 min. After centrifugation at 16,000×g for 10 min, the mixtures were kept for 2 h for freezing aqueous phase. The upper ethyl acetate layer was transferred to a clean tube and evaporated to dryness under a gentle stream of nitrogen. Then, the dried extract was reconstituted in 100 µl of mobile phase and 10 µl aliquot of the solution was injected into an Agilent 6470 Triple Quad LC–MS/MS system (Agilent, Wilmington, DE) coupled with an Agilent 1260 HPLC system. Separation was performed on a Synergy Polar RP column (4 μm particle size, 2.0 mm × 150 mm, Phenomenex) using a mobile phase that consisted of methanol and water (95:5, v/v) with 0.1% formic acid at a flow rate of 0.2 ml min^−1. Quantification was carried out using multiple reaction monitoring (MRM) at m/z 340.3→263.3 for N-AS and m/z 328.9→284.8 for furosemide (internal standard) in negative ionization mode and collision energy of 20 eV. […] Also, to confirm N-AS generation in neurons, microglia, and astrocytes, these cells were treated with Aβ, and sonicated in neuronal and glial culture medium. […] To evaluate N-AS in microglia and neurons in vivo, the cells were isolated from WT mice, APP/PS1 mice and APP/PS1 mice treated with N-AS at 9 months of age. The cells were sonicated and resuspended in glial and neuronal culture medium, respectively. A 100 μl aliquot of each cell lysate were used for the determination of N-AS using a method previously described.
To confirm the generation and roles of N-AS in neurons, cells from E18 C57BL/6 mice were prepared as previously described. Cortices were dissected and then dissociated followed by incubation in papain (Worthington) at 37 °C for 15 min. […] Aβ 1–42 (10 μM, 24 h, Invitrogen, 03112) was exposed to neurons and the cells were analyzed for the generation and roles of N-AS. […]

APP/PS1 mice = assay: COX2 mRNA and protein in microglia of mice treated with N-AS or aspirin (Supplementary Fig 7p,q); type: in vivo, mouse; settings: for COX2 mRNA in microglia: APP/PS1 mice treated, sFig 7p
Text: Adult neurons and microglia were isolated from the mice brain as previously described. In brief, the cortex of WT (1, 3, 5, or 9-months-old), APP/PS1 (1, 3, 5, or 9-months-old), APP/PS1 treated with N-AS (9-months-old) or APP/PS1 treated with aspirin (9-months-old) mice were minced in Hibernate A (Gibco)/B27 (Invitrogen) medium and dissociated using papain (Worthington) solution. After tissue trituration, cells were separated by Optiprep (Sigma-Aldrich) density gradient centrifugation.
Samples were lysed in RIPA buffer (Cell signaling Technologies), then subjected to SDS-PAGE and transferred to a nitrocellulose membrane. Membranes were blocked with 5% milk, incubated with primary antibody and then incubated with the appropriate horseradish peroxidase-conjugated secondary antibody. […] We performed densitometric quantification using the ImageJ software (National Institutes of Health). Images have been cropped for presentation.
Transgenic mouse lines over-expressing the hAPP695swe (APP) and presenilin-1M146V (PS1) mutations were originated from GlaxoSmithKline (Harlow, UK)[32] and maintained as described previously. […] Because APP/PS1 and 5xFAD mice show sex differences in disease progression, we used only male mice. […] Block randomization method was used to allocate the animals to experimental groups. To eliminate the bias, we were blinded in experimental progress such as data collection and data analysis. […] All protocols were approved by the Kyungpook National University Institutional Animal Care and Use Committee.
For total RNA extraction from the microglia derived from WT, APP/PS1, APP/PS1 mice treated with N-AS, and APP/PS1 mice treated with aspirin, the cells were isolated from the cortex of WT, APP/PS1, APP/PS1 mice treated with N-AS, or aspirin using the methods described above. […] Quantitative real-time PCR was performed using a Corbett research RG-6000 real-time PCR instrument. Primers are described in Supplementary Table 5.

Molecule: CC(=O)SCCNC(=O)CCNC(=O)[C@H](O)C(C)(C)COP(=O)(O)OP(=O)(O)OC[C@H]1O[C@@H](n2cnc3c(N)ncnc32)[C@H](O)[C@@H]1OP(=O)(O)O [Acetyl-CoA, acetyl-CoA]
- N-AS generation in human microglia ([1]; Ab 50mM + Acetyl CoA 100mM, sFig 6a): 10.5625 and 12.1817 and 11.3721 and 11.7769
- N-AS generation, acetyl-S565 COX2 and SPM secretion, in words ([1]; Aβ-treated human microglia + acetyl-CoA): restored

Molecule: CC(=O)Oc1ccccc1C(=O)O [Aspirin, acetylsalicylic acid, reference compound]
- COX2 mRNA in microglia (APP/PS1 mice): 0.57 and 0.65 and 0.68 and 0.49 and 0.61

Molecule: CCCCCCCCCCCCC/C=C/[C@@H](O)[C@H](CO)NC(C)=O [N-AS, N-((2S,3R,E)-1,3-Dihydroxyoctadec-4-en-2-yl)acetamide]
- COX2 mRNA in microglia (APP/PS1 mice): 0.91 and 0.92 and 1.07 and 1.22 and 1
- mRNA and protein levels of COX2 (APP/PS1 mice; N-AS-treated vs APP/PS1): did not vary

Molecule: Ab: Aβ 1–42 (Invitrogen, 03112) used to induce an AD environment in cells
- N-AS generation, in words ([1]; Aβ-treated human microglia): reduction of N-AS generation
